{"source": "paper PMC7692187", "about": "“Rapid In Vivo Validation of HDAC Inhibitor-Based Treatments in Neuroblastoma Zebrafish Xenografts” (Pharmaceuticals, 2020)", "key": {"phospho-histone H3": {"tested_on": "phospho-histone H3", "assay": "IHC staining for phospho-histone H3 (pHH3) in SK-N-BE(2)-C zebrafish xenografts", "assay_type": "in vivo, human", "conditions": "48 h exposure; solvent-treated 47%", "procedure": "(§1) Due to this relatively short treatment duration (48 h), the apoptosis induction of the combination therapy is predominant over the antiproliferative effect.\n(§2) Left panel: representative images of sections stained against cleaved caspase-3. […] The number of positive cells was calculated as the ratio of positive to total cells counted, relative to solvent. […] (b) Left panel: representative images of sections stained against phospho-histone H3, a marker specific for cells undergoing mitosis. […] The number of positive cells (%) was calculated as the ratio of positive to total cells counted.\n(§3) Following fixation (24 h at 4 °C) in Special Fixative for Anatomy and Histology (Morphisto, Frankfurt am Main, Germany), xenografted zebrafish larvae were transferred to embedding cassettes equipped with biopsy pads, dehydrated, and infiltrated with paraffin. […] FIJI software and a macro program were employed for quantitative analysis of the xenograft slides, while the analysis of slides obtained from neuroblastoma patients was carried out manually. All quantitative analyses were performed in a blinded fashion on the xenograft slides (five tissue sections per zebrafish larva), which were obtained from at least two xenotransplantation replicates."}, "zebrafish larvae": {"tested_on": "zebrafish larvae", "assay": "Toxicity test: three-day treatment of fish larvae without injection of tumor cells", "assay_type": "in vivo, zebrafish (Danio rerio)", "conditions": "three-day incubation time at 34 °C, drug in buffer", "procedure": "(§4) For treatment, larvae were incubated in freshly prepared buffer solution supplemented with 0.2 mM PTU, containing the drug of interest at increasing concentrations. Drug-containing solutions were administered at the beginning of the experiment and were not replaced during the incubation period. Solvent control was applied in the same manner as the drug treatments."}, "cleaved caspase-3": {"tested_on": "cleaved caspase-3", "assay": "IHC staining for cleaved caspase-3 in SK-N-BE(2)-C zebrafish xenografts", "assay_type": "in vivo, human", "conditions": "48 h exposure, compared to solvent-treated control", "procedure": "as §1, §2, §3"}, "xenografted tumor cells": {"tested_on": "xenografted tumor cells", "assay": "Dose response in zebrafish xenografts: relative IC50 from the change in tumor volume", "assay_type": "in vivo, human", "conditions": "Danio rerio, compared to solvent, drug applied to surrounding water, n = 3–5 fish per concentration", "procedure": "(§5) To determine optimal drug concentrations, larvae bearing xenografted tumor cells were incubated with increasing drug concentrations 24 h post implantation (hpi), ranging from the concentrations used in previous cell culture experiments to the MTD(larvae) (Figure 2a). […] Using these concentrations, we evaluated whether HDACis were able to reach their specific enzymatic targets.\n(§6) Right: representative images of immunohistochemical staining (c) Left: quantification of staining for acetylated histone H3. Right: representative images of immunohistochemical staining.\nas §4"}, "[1]": {"tested_on": "acetylated α-tubulin (substrate of HDAC6)", "assay": "IHC staining for acetylated α-tubulin in SK-N-BE(2)-C zebrafish xenografts", "assay_type": "in vivo, human", "conditions": "50 µM, 48 h, SK-N-BE(2)-C xenografts, versus solvent", "procedure": "as §5, §6\n(§7) Following fixation (24 h at 4 °C) in Special Fixative for Anatomy and Histology (Morphisto, Frankfurt am Main, Germany), xenografted zebrafish larvae were transferred to embedding cassettes equipped with biopsy pads, dehydrated, and infiltrated with paraffin. Briefly, fixed larvae were dehydrated using Leica ASP300S tissue processor (Leica Biosystems, Wetzlar, Germany) through incubation in aqueous solutions of increasing ethanol concentration (1 h in 50% ethanol, 2 h in 70% ethanol, 2 h in 80% ethanol, 1 h in 96% ethanol, 3 h in absolute ethanol) and thereafter incubated with xylene for 5 h. Next, samples were transferred to liquid paraffin at 60 °C and allowed to infiltrate for 5 h."}, "SK-N-BE(2)-C cells": {"tested_on": "SK-N-BE(2)-C cells", "assay": "Doxorubicin accumulation in engrafted tumor cells and zebrafish tissues", "assay_type": "in vivo, human", "conditions": "tubastatin A 50 µM with doxorubicin 110 ng/mL, 48 h, relative to doxorubicin alone", "description": "Doxorubicin has an intrinsic fluorescence due to the presence of a hydroxy-substituted anthraquinone chromophore.\n(b,c) Representative images (b) and quantification (c) of zebrafish larvae engrafted with Hoechst stained and doxorubicin-treated SK-N-BE(2)-C cells. Larvae, except of unstained larvae, were exposed for 48 h to doxorubicin (red fluorescence) and tubastatin A or solvent. Red fluorescence of doxorubicin was visualized by confocal microscopy and normalized to tumor area. Results are presented as log2 fold change (FC) relative to doxorubicin alone. […] One-way ANOVA with Tukey’s multiple comparison test, scale bar = 50 µm.\nSK-N-BE(2)-C cells were incubated with Hoechst nucleic acid dye (Thermo Fisher Scientific) at a concentration of 10 µg/mL for 30 min at 37 °C. […]\nZebrafish larvae engrafted with Hoechst-stained SK-N-BE(2)-C cells were exposed to solvent, doxorubicin, or doxorubicin combined with tubastatin A for 48 h. Red fluorescence of doxorubicin was visualized by confocal microscopy. Doxorubicin has an intrinsic fluorescence due to the presence of a hydroxy-substituted anthraquinone chromophore, with typical excitation and emission maxima in the range of 500 nm and 552–585 nm, respectively. Total fluorescence intensity in the tumor area (determined by nuclear staining) was defined as that above the threshold set by the solvent group and was quantified using a macro program."}, "[2]": {"tested_on": "acetylated histone H3 (substrate of HDAC1–3)", "assay": "IHC staining for acetylated histone H3 in SK-N-BE(2)-C zebrafish xenografts", "assay_type": "in vivo, human", "conditions": "48 h exposure at IC50 concentrations (tubastatin A 50 µM), SK-N-BE(2)-C xenografts", "procedure": "as §5, §6, §7"}}, "data": [{"compound": "COc1cccc2c1C(=O)c1c(O)c3c(c(O)c1C2=O)C[C@@](O)(C(=O)CO)C[C@@H]3O[C@H]1C[C@H](N)[C@H](O)[C@H](C)O1", "note": "[doxorubicin]", "values": [{"measurement": "average number of tumor cells per slide positive for pHH3", "setting": "phospho-histone H3", "result": 38, "unit": "%"}, {"measurement": "Maximum Tolerated Dose (MTD)", "setting": "zebrafish larvae", "result": 500, "unit": "ng/mL"}, {"measurement": "number of cells positive for cleaved caspase-3", "setting": "cleaved caspase-3", "result": "increased"}, {"measurement": "IC50", "setting": "xenografted tumor cells; 48 h treatment", "result": 0.11, "unit": "µg/mL"}]}, {"compound": "O=C(CCCCCCC(=O)Nc1ccccc1)NO", "note": "[vorinostat]", "values": [{"measurement": "average number of tumor cells per slide positive for pHH3", "setting": "phospho-histone H3", "result": 30, "unit": "%"}, {"measurement": "Maximum Tolerated Dose (MTD)", "setting": "zebrafish larvae", "result": 100, "unit": "µM"}, {"measurement": "number of cells positive for cleaved caspase-3", "setting": "cleaved caspase-3", "result": "increased"}]}, {"compound": "CN1CCc2c(c3ccccc3n2Cc2ccc(C(=O)NO)cc2)C1", "note": "[tubastatin A]", "values": [{"measurement": "increase of acetylated α-tubulin", "setting": "[1]", "result": 5, "unit": "fold"}, {"measurement": "doxorubicin accumulation in zebrafish tissues and engrafted tumor cells", "setting": "SK-N-BE(2)-C cells", "result": "increased"}, {"measurement": "Maximum Tolerated Dose (MTD)", "setting": "zebrafish larvae", "result": 200, "unit": "µM"}, {"measurement": "IC50", "setting": "xenografted tumor cells; 48 h treatment from 24 hpi", "result": 50, "unit": "µM"}, {"measurement": "cells stained positive for ac-histone H3", "setting": "[2]", "result": "not acetylated H3"}]}, {"compound": "Cc1[nH]c2ccccc2c1CCNCc1ccc(/C=C/C(=O)NO)cc1", "note": "[panobinostat]", "values": [{"measurement": "Maximum Tolerated Dose (MTD)", "setting": "zebrafish larvae", "result": 1, "unit": "µM"}, {"measurement": "IC50", "setting": "xenografted tumor cells; 48 h treatment from 24 hpi", "result": 0.2, "unit": "µM"}]}]}
